The values below come from patent US9200051B2, “Peptide compound” (TAKEDA PHARMACEUTICAL COMPANY LIMITED, priority 2013, dated 2015).

SMILES strings stand for the structures. Where two headings read alike, the source gives them in different places. Square brackets hold non-standard residues; d marks the D form. Peptide text beside a SMILES is read from it. αMeY = C[C@](N)(Cc1ccc(O)cc1)C(=O)O; αMeF = C[C@](N)(Cc1ccccc1)C(=O)O; Aib = CC(C)(N)C(=O)O

Common to all, as to assay type: cell-based
The target of one assay is T1, human GIPR (Homo sapiens, UniProt P48546).
T1 construct: expressed in transfected cells; host or cells: CHO-K1 (CRE-LUC/CHO-K1), plasmid hGIPR/pMSRα-neo
T1 sequence (P48546 22-466): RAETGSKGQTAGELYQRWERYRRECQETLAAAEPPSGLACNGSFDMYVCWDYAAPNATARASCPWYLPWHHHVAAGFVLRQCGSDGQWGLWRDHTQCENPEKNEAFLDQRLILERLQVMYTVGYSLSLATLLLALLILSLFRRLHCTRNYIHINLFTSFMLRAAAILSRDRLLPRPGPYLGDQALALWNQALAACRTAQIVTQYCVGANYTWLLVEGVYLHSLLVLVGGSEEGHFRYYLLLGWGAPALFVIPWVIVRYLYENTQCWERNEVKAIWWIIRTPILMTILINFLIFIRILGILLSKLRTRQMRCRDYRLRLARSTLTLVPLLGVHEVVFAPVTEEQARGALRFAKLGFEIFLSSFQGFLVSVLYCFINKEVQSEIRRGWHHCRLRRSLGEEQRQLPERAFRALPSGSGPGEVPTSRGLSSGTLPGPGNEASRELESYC
Put plainly: Agonist activity against human GIPR, CRE-luciferase reporter assay (rise in intracellular cAMP) in hGIPR/CRE-LUC/CHO-K1 cells. An excerpt: (§1) Evaluation of agonist activity against human GIPR, human GLP-1R and human glucagon R using rise in intracellular cAMP concentration as index
The human GIPR gene having a sequence identical to the sequence of GenBank Accession No. U39231 was cloned into pMSRα-neo vector to prepare hGIPR/pMSRα-neo.
(§2) The luciferase reporter gene having an upstream cAMP response sequence was introduced to CHO-K1 cells to construct CRE-LUC/CHO-K1 cells.
The plasmid hGIPR/pMSRα-neo obtained in (1) was introduced to the CRE-LUC/CHO-K1 cells obtained in (2) to obtain transformants. Next, a cell line induced to express luciferase, i.e., hGIPR/CRE-LUC/CHO-K1 cells, were selected from the obtained transformants by the addition of GIP.
(§3) The hGIPR/CRE-LUC/CHO-K1 cells were inoculated at a cell density of 25 μL/well (5×10^4 cells/well) to a 384-well white plate (Corning), and cultured overnight in Ham F12 medium containing 10% fetal bovine serum, 100 U/mL penicillin and 100 μg/mL streptomycin in a CO2 incubator of 37° C. A medium containing a test compound was added at a concentration of 5 μL/well to the cells, and the resultant cells were incubated for 4 hours in a CO2 incubator of 37° C. to give the final concentration of 1 μM. PicaGene LT7.5 (Toyo Ink Co., Ltd.) was added thereto at a concentration of 30 μL/well, and the mixture was shaken with light shielded. After 30 minutes, the luciferase activity was measured using a plate reader Envision (PerkinElmer). The luciferase activity in the presence of 10 nM GIP was defined as 100%, and the luciferase activity from the addition of DMSO instead of the test compound was defined as 0%. The GIPR agonist activity was calculated with a rise in intracellular cAMP concentration as an index.
Background: In a reporter assay the amount or activity of a reporter protein is the signal.

The next assay concerns the target T2, human GLP-1R (Homo sapiens, UniProt P43220).
T2 construct: expressed in transfected cells; host or cells: CHO-K1, plasmids hGLP-1/pIRESneo3 and Cre-luc(Zeo)
Put plainly: Agonist activity against human GLP-1R, CRE-luciferase reporter assay in hGLP-1R/CRE-luc/CHO-K1 cells.
Text: as §1
Four copies of the cAMP response sequence and the Zeocin resistance gene were introduced to pGL3(R2.2)-Basic Vector (Promega) to construct Cre-luc(Zeo) reporter plasmid.
The human GLP-1R gene having a sequence identical to the sequence of GenBank Accession No. NM_002062 was cloned into pIRESneo3 vector to prepare hGLP-1/pIRESneo3.
The Cre-luc(Zeo) obtained in (3) and the plasmid hGLP-1/pIRESneo3 obtained in (5) were introduced to CHO-K1 cells to obtain transformants. Next, a cell line induced to express luciferase, i.e., hGLP-1R/CRE-luc/CHO-K1 cells, were selected from the obtained transformants by the addition of GLP-1.
as §3
The GLP-1R agonist activity was assayed in the same way as above using the hGLP-1R/CRE-luc/CHO-K1 cells. The luciferase activity in the presence of 10 nM GLP-1 was defined as 100%, and the luciferase activity from the addition of DMSO instead of the test compound was defined as 0%. The GLP-1R agonist activity was calculated with a rise in intracellular cAMP concentration as an index.

A further assay deals with T3, human glucagon R (Homo sapiens, UniProt P47871).
T3 construct: expressed in transfected cells; host or cells: CHO-K1 (CRE-LUC/CHO-K1), plasmid hGlucagonR/pMSRα-neo
Put plainly: Agonist activity against human glucagon R, CRE-luciferase reporter assay in hGlucagonR/CRE-LUC/CHO-K1 cells.
Text: as §1, §2
The human glucagon R gene having a sequence identical to the sequence of GenBank Accession No. NM_000160 was cloned into pMSRα-neo vector to prepare hGlucagonR/pMSRα-neo.
The plasmid hGlucagonR/pMSRα-neo obtained in (7) was introduced to the CRE-LUC/CHO-K1 cells obtained in (2) to obtain transformants. Next, a cell line induced to express luciferase, i.e., hGlucagonR/CRE-LUC/CHO-K1 cells, were selected from the obtained transformants by the addition of glucagon.
as §3
The glucagon R agonist activity was assayed in the same way as above using the hGlucagonR/CRE-LUC/CHO-K1 cells. The luciferase activity in the presence of 10 nM glucagon was defined as 100%, and the luciferase activity from the addition of DMSO instead of the test compound was defined as 0%. The glucagon agonist activity was calculated with a rise in intracellular cAMP concentration as an index.

T3 sequence (P47871 26-477): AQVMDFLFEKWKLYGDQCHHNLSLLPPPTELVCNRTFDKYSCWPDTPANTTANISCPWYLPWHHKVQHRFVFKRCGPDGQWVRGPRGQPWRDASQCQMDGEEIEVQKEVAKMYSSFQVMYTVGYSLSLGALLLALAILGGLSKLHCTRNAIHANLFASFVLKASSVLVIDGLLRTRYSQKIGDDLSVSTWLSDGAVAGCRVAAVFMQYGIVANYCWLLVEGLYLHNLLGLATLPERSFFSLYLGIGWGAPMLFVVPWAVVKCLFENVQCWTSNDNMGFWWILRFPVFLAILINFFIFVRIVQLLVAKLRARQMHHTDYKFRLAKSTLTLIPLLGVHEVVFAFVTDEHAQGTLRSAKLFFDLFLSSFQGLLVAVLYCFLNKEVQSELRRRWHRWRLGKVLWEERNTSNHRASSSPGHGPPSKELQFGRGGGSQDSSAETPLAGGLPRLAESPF
T2 sequence (P43220 24-463): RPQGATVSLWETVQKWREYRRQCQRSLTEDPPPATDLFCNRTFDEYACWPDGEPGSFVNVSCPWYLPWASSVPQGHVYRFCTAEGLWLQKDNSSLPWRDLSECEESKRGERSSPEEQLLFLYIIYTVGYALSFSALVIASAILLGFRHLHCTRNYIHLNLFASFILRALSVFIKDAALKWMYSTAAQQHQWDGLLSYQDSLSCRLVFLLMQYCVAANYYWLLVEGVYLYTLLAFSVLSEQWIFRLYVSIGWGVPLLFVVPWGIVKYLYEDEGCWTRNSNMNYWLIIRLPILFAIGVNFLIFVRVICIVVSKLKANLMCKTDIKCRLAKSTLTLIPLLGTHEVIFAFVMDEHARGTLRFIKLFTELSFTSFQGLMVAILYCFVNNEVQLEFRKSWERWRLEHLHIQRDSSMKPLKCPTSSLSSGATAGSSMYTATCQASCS

Regarding `CC[C@H](C)[C@H](NC(=O)C(C)(C)NC(=O)[C@H](Cc1ccc(O)cc1)NC(=O)[C@H](CC(=O)O)NC(=O)[C@H](CO)NC(=O)[C@@H](NC(=O)[C@](C)(Cc1ccccc1)NC(=O)[C@@H](NC(=O)CNC(=O)[C@H](CCC(=O)O)NC(=O)C(C)(C)NC(=O)[C@H](Cc1ccc(O)cc1)NC(C)=O)[C@@H](C)O)[C@@H](C)O)C(=O)NC(C)(C)C(=O)N[C@@H](CC(C)C)C(=O)N[C@@H](CC(=O)O)C(=O)N[C@@H](CCCCN)C(=O)N[C@@H](CCC(N)=O)C(=O)N[C@@H](C)C(=O)N[C@@H](CCC(N)=O)C(=O)N[C@@H](C)C(=O)N[C@@H](CCC(=O)O)C(=O)N[C@@H](Cc1ccccc1)C(=O)N[C@H](C(=O)N[C@@H](CCCCN)C(=O)N[C@@H](Cc1c[nH]c2ccccc12)C(=O)N[C@@H](CC(C)C)C(=O)N[C@@H](CC(C)C)C(=O)N[C@@H](CCCCN)C(=O)NCC(=O)NCC(=O)N1CCC[C@H]1C(=O)N[C@@H](CO)C(=O)N[C@@H](CO)C(=O)NCC(=O)N[C@@H](C)C(=O)N1CCC[C@H]1C(=O)N1CCC[C@H]1C(=O)N1CCC[C@H]1C(=O)N[C@@H](CO)C(=O)N[C@@H](CCCCN)C(N)=O)C(C)C` [Example 18] (Ac-Y[Aib]EGT[αMeF]TSDY[Aib]I[Aib]LDKQAQAEFVKWLLKGGPSSGAPPPSK-NH2), the EC50 on human GIPR (hGIPR/CRE-LUC/CHO-K1 cells, 4 hours incubation, 10 nM GIP = 100%, read-out: Agonist activity (EC50) hGIPR) is 0.027 nM; at human GLP-1R (hGLP-1R/CRE-luc/CHO-K1 cells, 4 hours incubation, 10 nM GLP-1 = 100%, read-out: Agonist activity (EC50) hGLP-1R), 0.13 nM; at human glucagon R (hGlucagonR/CRE-LUC/CHO-K1 cells, 4 hours incubation, 10 nM glucagon = 100%, read-out: Agonist activity (EC50) hGCGR) it was > 1000 nM.

Turning to `CC(C)C[C@H](NC(=O)[C@H](CC(C)C)NC(=O)[C@H](Cc1c[nH]c2ccccc12)NC(=O)[C@H](CCCCN)NC(=O)[C@@H](NC(=O)[C@H](Cc1ccccc1)NC(=O)[C@H](CCC(=O)O)NC(=O)[C@H](C)NC(=O)[C@H](CCC(N)=O)NC(=O)[C@H](C)NC(=O)[C@H](CCC(N)=O)NC(=O)[C@H](CCCCN)NC(=O)[C@H](CC(=O)O)NC(=O)[C@H](CC(C)C)NC(=O)C(C)(C)NC(=O)[C@H](C)NC(=O)C(C)(C)NC(=O)[C@H](Cc1ccc(O)cc1)NC(=O)[C@H](CC(=O)O)NC(=O)[C@H](CO)NC(=O)[C@@H](NC(=O)[C@](C)(Cc1ccccc1)NC(=O)[C@@H](NC(=O)CNC(=O)[C@H](CCC(=O)O)NC(=O)C(C)(C)NC(=O)[C@@H](N)Cc1ccc(O)cc1)[C@@H](C)O)[C@@H](C)O)C(C)C)C(=O)N[C@@H](CCCCN)C(=O)NCC(=O)NCC(=O)N1CCC[C@H]1C(=O)N[C@@H](CO)C(=O)N[C@@H](CO)C(=O)NCC(=O)N[C@@H](C)C(=O)N1CCC[C@H]1C(=O)N1CCC[C@H]1C(=O)N1CCC[C@H]1C(=O)N[C@@H](CO)C(=O)N[C@@H](CCCCN)C(N)=O` [Example 10] (H-Y[Aib]EGT[αMeF]TSDY[Aib]A[Aib]LDKQAQAEFVKWLLKGGPSSGAPPPSK-NH2), the EC50 at human GIPR was 0.0054 nM; on human GLP-1R it was 0.0083 nM; at human glucagon R it was > 1000 nM.

In the case of `CC[C@H](C)[C@H](NC(=O)C(C)(C)NC(=O)[C@H](Cc1ccc(O)cc1)NC(=O)[C@H](CC(=O)O)NC(=O)[C@H](CO)NC(=O)[C@@H](NC(=O)[C@](C)(Cc1ccccc1)NC(=O)[C@@H](NC(=O)CNC(=O)[C@H](CCC(=O)O)NC(=O)C(C)(C)NC(=O)[C@@H](N)Cc1ccc(O)cc1)[C@@H](C)O)[C@@H](C)O)C(=O)NC(C)(C)C(=O)N[C@@H](CC(C)C)C(=O)N[C@@H](CC(=O)O)C(=O)N[C@@H](CCCCN)C(=O)N[C@@H](CCC(N)=O)C(=O)N[C@@H](C)C(=O)N[C@@H](CCC(N)=O)C(=O)N[C@@H](C)C(=O)N[C@@H](CCC(=O)O)C(=O)N[C@@H](Cc1ccccc1)C(=O)N[C@H](C(=O)N[C@@H](CCCCN)C(=O)N[C@@H](Cc1c[nH]c2ccccc12)C(=O)N[C@@H](CC(C)C)C(=O)N[C@@H](CC(C)C)C(=O)N[C@@H](CCCCN)C(=O)NCC(=O)NCC(=O)N1CCC[C@H]1C(=O)N[C@@H](CO)C(=O)N[C@@H](CO)C(=O)NCC(=O)N[C@@H](C)C(=O)N1CCC[C@H]1C(=O)N1CCC[C@H]1C(=O)N1CCC[C@H]1C(=O)N[C@@H](CO)C(N)=O)C(C)C` [Example 6] (H-Y[Aib]EGT[αMeF]TSDY[Aib]I[Aib]LDKQAQAEFVKWLLKGGPSSGAPPPS-NH2), the concentration giving a half-maximal response (EC50) on human GIPR is 0.0073 nM; on human GLP-1R, 0.016 nM; on human glucagon R it was > 1000 nM.

As for `CC[C@H](C)[C@H](NC(=O)C(C)(C)NC(=O)[C@H](Cc1ccc(O)cc1)NC(=O)[C@H](CC(=O)O)NC(=O)[C@H](CO)NC(=O)[C@@H](NC(=O)[C@](C)(Cc1ccccc1)NC(=O)[C@@H](NC(=O)CNC(=O)[C@H](CCC(=O)O)NC(=O)C(C)(C)NC(=O)[C@@H](N)Cc1ccc(O)cc1)[C@@H](C)O)[C@@H](C)O)C(=O)N[C@@](C)(Cc1ccc(O)cc1)C(=O)N[C@@H](CC(C)C)C(=O)N[C@@H](CC(=O)O)C(=O)N[C@@H](CCCCN)C(=O)N[C@@H](CCC(N)=O)C(=O)N[C@@H](C)C(=O)N[C@@H](CCC(N)=O)C(=O)N[C@@H](C)C(=O)N[C@@H](CCC(=O)O)C(=O)N[C@@H](Cc1ccccc1)C(=O)N[C@H](C(=O)N[C@@H](CCCCN)C(=O)N[C@@H](Cc1c[nH]c2ccccc12)C(=O)N[C@@H](CC(C)C)C(=O)N[C@@H](CC(C)C)C(=O)N[C@@H](CCCCN)C(=O)NCC(=O)NCC(=O)N1CCC[C@H]1C(=O)N[C@@H](CO)C(=O)N[C@@H](CO)C(=O)NCC(=O)N[C@@H](C)C(=O)N1CCC[C@H]1C(=O)N1CCC[C@H]1C(=O)N1CCC[C@H]1C(=O)N[C@@H](CO)C(=O)N[C@@H](CCCCN)C(N)=O)C(C)C` [Example 17] (H-Y[Aib]EGT[αMeF]TSDY[Aib]I[αMeY]LDKQAQAEFVKWLLKGGPSSGAPPPSK-NH2), the EC50 was 0.014 nM at human GIPR, 0.018 nM on human GLP-1R and > 1000 nM on human glucagon R.

Broadly, the EC50 is the concentration needed to bring the measured effect to its halfway point.
